{
  "source": "patent US20130045952A1",
  "about": "“ABA Receptor Agonists for Increased Plant Stress Resistance” (Van Andel Research Institute, priority 2011, published 2013)",
  "format_in_all_cases": "biochemical",
  "key": {"[1]": {"molecular_target": "T1, PYL2 A93F (Arabidopsis thaliana, UniProt O80992, A93F)", "T1 construct": "PYL2 (residues 14-188), and HAB1 (residues 172-511) were prepared as recombinant proteins in E. coli; made in house; host or cells: E. coli (stated for PYL2 in general)", "T1 sequence (O80992 14-188 A93F)": "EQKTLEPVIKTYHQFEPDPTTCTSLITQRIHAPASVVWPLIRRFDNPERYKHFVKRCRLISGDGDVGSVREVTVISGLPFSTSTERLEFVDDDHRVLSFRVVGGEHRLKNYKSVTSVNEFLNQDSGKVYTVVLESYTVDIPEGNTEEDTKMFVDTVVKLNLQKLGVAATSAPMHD", "assay": "PP2C binding and phosphatase assays of mutant PYL2 A93F", "excerpt": "The closest distance between the pyridine ring of pyrabactin and the LPA gating residues is 4.8 Å-7.0 Å when the LPA loop assumes the ABA-bound closed conformation, but is 11-13 Å when the LPA gate is in open conformation. In contrast, the distance of the naphthalene double ring of pyrabactin or the cyclohexene ring of ABA to the three side chains of the LPA gate in the PYL1 structure is 3.4-4.6 Å, a range for strong Van der Waals interactions, thus helping to keep the LPA gate in the closed conformation. […] To validate this hypothesis, we changed the alanine in the LPA loop to a larger residue. […] As expected from structural modeling, replacement of the gate residue A93 with the bulky phenylalanine ring also abrogated ABA to promote PYL2 activation.\n(§1) Mutant proteins were expressed as H6GST-fusion proteins and purified by glutathione sepharose chromatography. Protein-protein interactions were determined by luminescence proximity AlphaScreen assay. Biotinylated PP2C proteins for the luminescence proximity assay were generated by in vivo biotinylation of avitag-PP2C fusion proteins. PP2C phosphatase activity was measured by phosphate release from a SnRK2.6 phosphoprotein.\nSite-directed mutagenesis was carried out using the QuickChange method (Stratagene). Mutations and all plasmid constructs were confirmed by sequencing."}, "[2]": {"molecular_target": "T2, HAB1 (Arabidopsis thaliana, UniProt O49686+Q9CAJ0)", "T2 construct": "HAB1 (residues 172-511) were prepared as recombinant proteins in E. coli; H6GST or H6Sumo; made in house; host or cells: E. coli", "T2 sequence (Q9CAJ0 172-511 limits assumed)": "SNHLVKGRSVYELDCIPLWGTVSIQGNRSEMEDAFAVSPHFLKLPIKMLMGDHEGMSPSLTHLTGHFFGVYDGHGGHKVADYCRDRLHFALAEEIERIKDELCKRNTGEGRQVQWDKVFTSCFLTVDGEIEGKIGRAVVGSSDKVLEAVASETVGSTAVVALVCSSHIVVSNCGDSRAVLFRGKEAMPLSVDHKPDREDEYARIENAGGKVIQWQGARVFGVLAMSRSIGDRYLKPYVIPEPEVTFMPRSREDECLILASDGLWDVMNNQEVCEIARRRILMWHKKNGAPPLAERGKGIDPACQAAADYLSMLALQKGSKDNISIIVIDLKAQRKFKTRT", "T2 sequence (O49686 1-191)": "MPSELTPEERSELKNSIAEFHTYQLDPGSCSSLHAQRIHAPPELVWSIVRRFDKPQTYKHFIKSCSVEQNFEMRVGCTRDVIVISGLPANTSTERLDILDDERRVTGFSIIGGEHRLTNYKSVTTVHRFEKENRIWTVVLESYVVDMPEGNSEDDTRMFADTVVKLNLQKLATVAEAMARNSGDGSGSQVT", "assay": "PP2C phosphatase activity assay, HAB1", "conditions": "200 nM PP2C; SnRK2.6 phosphopeptide substrate; None = 100", "protocol": "as §1\n(§2) PP2Cs and PYR/PYL proteins were pre-incubated at the indicated concentrations in 50 mM imidazole, pH 7.2, 5 mM MgCl2, 0.1% β-mercaptoethanol and 0.5 mg/ml BSA for 30 min at room temperature. Reactions were started by addition of 100 μM of a phosphopeptide corresponding to amino acids 170-180 of SnRK2.6 (HSQPK^pSTVGTP). This peptide is phosphorylated at a single residue corresponding to Ser175 in SnRK2.6, whose phosphorylation is required for SnRK2.6 kinase activity^32. Phosphate release from ^pS175 from the phosphopeptide was determined by colorimetric assay (BioVision)."}, "[3]": {"molecular_target": "T3, His6-PYL2 / biotin-PP2C (Arabidopsis thaliana, UniProt O80992)", "T3 construct": "PYL2 (residues 14-188), and HAB1 (residues 172-511) were prepared as recombinant proteins in E. coli; made in house; host or cells: E. coli", "T3 sequence (O80992 14-188)": "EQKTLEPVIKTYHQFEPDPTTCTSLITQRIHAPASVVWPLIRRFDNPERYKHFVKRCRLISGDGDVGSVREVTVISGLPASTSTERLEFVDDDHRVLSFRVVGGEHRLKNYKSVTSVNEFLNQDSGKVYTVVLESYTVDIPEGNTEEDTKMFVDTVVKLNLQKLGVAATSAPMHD", "assay": "AlphaScreen luminescence proximity assay, PYL2-PP2C interaction", "conditions": "100 nM His6-PYL2, 100 nM biotin-PP2C, 100 μM agonist; normalized against a pyrabactin control", "protocol": "as §1\n(§3) Interactions between PYR/PYL and PP2Cs were assessed by luminescence-proximity AlphaScreen technology (Perkin Elmer). Briefly, biotinylated PP2Cs were attached to streptavidin-coated donor beads, and H6-tagged PYR/PYL receptors were attached to nickel-chelated acceptor beads. The donor and acceptor beads were brought into proximity by the interactions between PYR/PYLs and PP2Cs, which were measured with and without ligands. When excited by a laser beam of 680 nm, the donor beam emits singlet oxygen that activates thioxene derivatives in the acceptor beads, which releases photons of 520-620 nm as the binding signal. The experiments were conducted with 100 nM of PP2Cs and PYR/PYL proteins in the presence of 5 ug/ml donor and acceptor beads in a buffer of 50 mM MOPS, pH7.4, 50 mM NaF, […], and 0.1 mg/ml bovine serum albumin. The results were based on an average of three experiments with standard errors typically less than 10% of the measurements.\n(§4) Values were determined in different experiments and normalized against a pyrabactin control. Blank spaces mean no experimental data is available. Key (photon counts (binding signal units) in Alphascreen luminescence proximity assay): “+++ is >75,000; ++ is 25,000−75,000; + is <25,000."}, "[4]": {"molecular_target": "T4, ABI1 (Arabidopsis thaliana, UniProt O49686+P49597)", "T4 construct": "ABI1 (residues 117-434) and ABI2 (residues 101-423) were expressed as H6Sumo fusion proteins; H6Sumo (N); made in house; host or cells: E. coli BL21", "T4 sequence (P49597 117-434 limits assumed)": "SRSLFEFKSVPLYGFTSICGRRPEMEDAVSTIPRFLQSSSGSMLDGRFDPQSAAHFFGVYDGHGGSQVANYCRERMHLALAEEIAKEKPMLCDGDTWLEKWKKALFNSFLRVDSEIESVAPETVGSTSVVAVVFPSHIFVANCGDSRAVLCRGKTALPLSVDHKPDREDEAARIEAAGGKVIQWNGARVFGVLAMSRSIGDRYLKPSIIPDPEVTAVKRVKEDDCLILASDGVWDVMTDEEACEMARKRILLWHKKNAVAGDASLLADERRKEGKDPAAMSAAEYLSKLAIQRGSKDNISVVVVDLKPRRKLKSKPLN", "T4 sequence (O49686 1-191)": "T2 sequence (O49686 1-191)", "assay": "PP2C phosphatase activity assay, ABI1", "conditions": "200 nM PP2C; SnRK2.6 phosphopeptide substrate; None = 100", "protocol": "as §1, §2"}, "[5]": {"molecular_target": "T5, His6-PYR1 / biotin-HAB1 (Arabidopsis thaliana, UniProt O49686)", "T5 construct": "made in house; host or cells: E. coli (stated for the PP2Cs; not expressly for PYR1)", "T5 sequence (O49686 1-191)": "T2 sequence (O49686 1-191)", "T5 sequence (Q9CAJ0 172-511 partner limits assumed)": "T2 sequence (Q9CAJ0 172-511 limits assumed)", "assay": "AlphaScreen dose response, PYR1-HAB1 interaction", "conditions": "100 nM His6-PYR1, 100 nM biotin-PP2C, 0-100 μM agonist; from dose response curves", "protocol": "as §3\n(§5) The results shown in Table 5b were calculated from the dose response curves of the dependence of the interaction between 100 nM His6-PYR1 and 100 nM biotin-PP2C on the presence of 0-100 μM agonists determined by AlphaScreen luminescence proximity assay. Key (EC50 in μM): ++++=<5.0 μM; +++=5-10 μM; ++=10-20 μM; and +=>20-60 μM."}, "[6]": {"molecular_target": "T6, ABI2 (Arabidopsis thaliana, UniProt O04719+O49686)", "T6 construct": "ABI1 (residues 117-434) and ABI2 (residues 101-423) were expressed as H6Sumo fusion proteins; H6Sumo (N); made in house; host or cells: E. coli BL21", "T6 sequence (O04719 101-423 limits assumed)": "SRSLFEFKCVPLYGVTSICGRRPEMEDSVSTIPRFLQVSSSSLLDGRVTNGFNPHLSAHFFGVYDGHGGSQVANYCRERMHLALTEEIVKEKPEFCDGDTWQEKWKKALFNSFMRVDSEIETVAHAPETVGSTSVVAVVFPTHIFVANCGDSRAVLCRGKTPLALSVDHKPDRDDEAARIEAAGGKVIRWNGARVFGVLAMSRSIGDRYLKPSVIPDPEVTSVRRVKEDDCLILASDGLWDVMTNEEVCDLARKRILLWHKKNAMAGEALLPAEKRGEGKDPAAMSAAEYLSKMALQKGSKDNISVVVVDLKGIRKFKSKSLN", "T6 sequence (O49686 1-191)": "T2 sequence (O49686 1-191)", "assay": "PP2C phosphatase activity assay, ABI2", "conditions": "200 nM PP2C; SnRK2.6 phosphopeptide substrate; None = 100", "protocol": "as §1, §2"}, "[7]": {"molecular_target": "T7, His6-PYL3 / biotin-PP2C (Arabidopsis thaliana, UniProt Q9SSM7)", "T7 construct": "made in house; host or cells: not expressly stated for PYL3", "T7 sequence (Q9SSM7 1-209)": "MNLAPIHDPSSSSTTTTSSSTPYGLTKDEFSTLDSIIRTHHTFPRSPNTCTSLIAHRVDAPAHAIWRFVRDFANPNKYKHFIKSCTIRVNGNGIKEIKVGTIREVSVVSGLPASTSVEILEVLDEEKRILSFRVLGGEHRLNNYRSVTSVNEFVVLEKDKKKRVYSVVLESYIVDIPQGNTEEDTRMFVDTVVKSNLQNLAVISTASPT", "assay": "AlphaScreen luminescence proximity assay, PYL3-PP2C interaction", "conditions": "100 nM His6-PYL3, 100 nM biotin-PP2C, 100 μM agonist; normalized against a pyrabactin control", "protocol": "as §1, §3, §4"}, "[8]": {"molecular_target": "T8, His6-PYR1 / biotin-PP2C (Arabidopsis thaliana, UniProt O49686)", "T8 construct": "made in house; host or cells: E. coli is stated for PYL1, PYL2 and the PP2Cs, not expressly for PYR1", "T8 sequence (O49686 1-191)": "T2 sequence (O49686 1-191)", "assay": "AlphaScreen luminescence proximity assay, PYR1-PP2C interaction", "conditions": "100 nM His6-PYR1, 100 nM biotin-PP2C, 100 μM agonist; normalized against a pyrabactin control", "protocol": "as §1, §3, §4"}, "[9]": {"molecular_target": "T9, His6-PYR1 / biotin-ABI2 (Arabidopsis thaliana, UniProt O49686)", "T9 construct": "made in house; host or cells: E. coli (stated for the PP2Cs; not expressly for PYR1)", "T9 sequence (O49686 1-191)": "T2 sequence (O49686 1-191)", "T9 sequence (O04719 101-423 partner limits assumed)": "T6 sequence (O04719 101-423 limits assumed)", "assay": "AlphaScreen dose response, PYR1-ABI2 interaction", "conditions": "100 nM His6-PYR1, 100 nM biotin-PP2C, 0-100 μM agonist; from dose response curves", "protocol": "as §3, §5"}, "[10]": {"molecular_target": "T10, His6-PYR1 / biotin-ABI1 (Arabidopsis thaliana, UniProt O49686)", "T10 construct": "made in house; host or cells: E. coli (stated for the PP2Cs; not expressly for PYR1)", "T10 sequence (O49686 1-191)": "T2 sequence (O49686 1-191)", "T10 sequence (P49597 117-434 partner limits assumed)": "T4 sequence (P49597 117-434 limits assumed)", "assay": "AlphaScreen dose response, PYR1-ABI1 interaction", "conditions": "100 nM His6-PYR1, 100 nM biotin-PP2C, 0-100 μM agonist; from dose response curves", "protocol": "as §3, §5"}},
  "data": [
    {"molecule": "(+)-Abscisic Acid", "values": [
      {"measurement": "Activation of mutant PYL2 A93F receptor", "setting": "[1]", "value": "abrogated"}
    ]},
    {"molecule": "CSCCCC(NS(=O)(=O)c1ccc(Br)c2ccccc12)C(=O)O", "note": "(stereo not shown) [Compound 3]", "values": [
      {"measurement": "% Phosphatase Activity HAB1", "setting": "[2]", "value": "17.5 ± 0.6", "unit": "%"},
      {"measurement": "Stimulation of the interaction between PYL2 and PP2C (binding signal)", "setting": "[3]", "value": "+ (+ is <25,000)"},
      {"measurement": "% Phosphatase Activity ABI1", "setting": "[4]", "value": "7.7 ± 4.3", "unit": "%"},
      {"measurement": "EC50", "setting": "[5]", "value": "< 5", "unit": "µM"},
      {"measurement": "% Phosphatase Activity ABI2", "setting": "[6]", "value": "7.0 ± 0.3", "unit": "%"},
      {"measurement": "Stimulation of the interaction between PYL3 and PP2C (binding signal)", "setting": "[7]", "value": "+++ (+++ is >75,000)"},
      {"measurement": "Stimulation of the interaction between PYR1 and PP2C (binding signal)", "setting": "[8]", "value": "++ (++ is 25,000−75,000)"},
      {"measurement": "EC50", "setting": "[9]", "value": "< 5", "unit": "µM"},
      {"measurement": "EC50", "setting": "[10]", "value": "< 5", "unit": "µM"}
    ]}
  ]
}
